Paper PMC2933030 (Biochemical Journal, 2010)

Key:
[1] = test system: 4xUb-Luc reporter in MDA-MB-231 cells; test: 4xUb-Luc reporter accumulation assay; type: cell-based; details: for MDA231 4xUb-Luc Maximal induction: 8 h with compound, over DMSO control
[2] = test system: bulk protein turnover in HCT116 cells; test: Bulk protein turnover assay; type: cell-based
[3] = test system: β5 site of the proteasome; details: cited from earlier work
[4] = target: human erythrocyte 20S β1c (caspase-like) site, constitutive proteasome (Homo sapiens, UniProt P28072+Q99436); test: Purified human 20S-PA28 peptidase assay, β1c site; type: biochemical
[5] = target: human peripheral blood monocyte 20S β1i site, immunoproteasome (Homo sapiens, UniProt P28065+P40306); test: Purified human 20S-PA28 peptidase assay, β1i site; type: biochemical
[6] = target: human erythrocyte 20S β2c (trypsin-like) site, constitutive proteasome (Homo sapiens, UniProt P49720+Q99436); test: Purified human 20S-PA28 peptidase assay, β2c site; type: biochemical
[7] = target: human peripheral blood monocyte 20S β2i site, immunoproteasome (Homo sapiens, UniProt P40306+P49720); test: Purified human 20S-PA28 peptidase assay, β2i site; type: biochemical
[8] = target: human peripheral blood monocyte 20S β5i site, immunoproteasome (Homo sapiens, UniProt P20618+P28062); test: Purified human 20S-PA28 peptidase assay, β5i site; type: biochemical
[9] = target: human erythrocyte 20S β5 site (Homo sapiens, UniProt P20618+P28074); test: Kinetic analysis of purified 20S inhibition; type: biochemical
[10] = test system: MDA-MB-231 cells; test: ATPlite cell viability assay, MDA-MB-231; type: cell-based; details: Homo sapiens, MDA-MB-231, 72 h, read-out: Cell viability MDA-MB-231 LC50
[11] = test system: MDA-MB-231, Calu6, H460, HCT116 and HT29 cells; test: ATPlite cell viability assays across cancer cell lines; type: cell-based; details: 72 h, read-out: LC50 values across a panel of five cancer cell lines
[12] = target: Cathepsin L (Homo sapiens, UniProt P07711); test: Protease selectivity assay, cathepsin L; type: biochemical
[13] = target: Coagulation Factor β-XIIa (Homo sapiens, UniProt P00748); test: Protease selectivity assay, coagulation Factor β-XIIa; type: biochemical
[14] = target: Thrombin (Homo sapiens, UniProt P00734); test: Protease selectivity assay, thrombin; type: biochemical
[15] = target: Tissue plasminogen activator (Homo sapiens, UniProt P00750); test: Protease selectivity assay, tissue plasminogen activator; type: biochemical
[16] = test system: Trypsin; test: Protease selectivity assay, trypsin; type: biochemical, human

Sequence of Coagulation Factor β-XIIa (P00748 373-615 limits assumed, other chains not shown): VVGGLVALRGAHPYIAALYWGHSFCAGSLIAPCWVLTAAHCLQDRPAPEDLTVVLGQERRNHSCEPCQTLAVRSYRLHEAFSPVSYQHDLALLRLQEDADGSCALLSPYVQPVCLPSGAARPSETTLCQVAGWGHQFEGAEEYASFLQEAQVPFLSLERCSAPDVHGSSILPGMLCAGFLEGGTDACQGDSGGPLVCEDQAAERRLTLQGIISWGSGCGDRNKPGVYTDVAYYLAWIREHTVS
Sequence of Cathepsin L (P07711 114-333): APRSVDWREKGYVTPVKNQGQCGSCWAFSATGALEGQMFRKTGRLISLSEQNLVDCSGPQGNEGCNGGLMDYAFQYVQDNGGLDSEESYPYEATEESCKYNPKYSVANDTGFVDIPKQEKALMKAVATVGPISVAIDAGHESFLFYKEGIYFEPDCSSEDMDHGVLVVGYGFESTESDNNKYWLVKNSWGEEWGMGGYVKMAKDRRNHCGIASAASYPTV
Sequence of Tissue plasminogen activator (P00750 36-562): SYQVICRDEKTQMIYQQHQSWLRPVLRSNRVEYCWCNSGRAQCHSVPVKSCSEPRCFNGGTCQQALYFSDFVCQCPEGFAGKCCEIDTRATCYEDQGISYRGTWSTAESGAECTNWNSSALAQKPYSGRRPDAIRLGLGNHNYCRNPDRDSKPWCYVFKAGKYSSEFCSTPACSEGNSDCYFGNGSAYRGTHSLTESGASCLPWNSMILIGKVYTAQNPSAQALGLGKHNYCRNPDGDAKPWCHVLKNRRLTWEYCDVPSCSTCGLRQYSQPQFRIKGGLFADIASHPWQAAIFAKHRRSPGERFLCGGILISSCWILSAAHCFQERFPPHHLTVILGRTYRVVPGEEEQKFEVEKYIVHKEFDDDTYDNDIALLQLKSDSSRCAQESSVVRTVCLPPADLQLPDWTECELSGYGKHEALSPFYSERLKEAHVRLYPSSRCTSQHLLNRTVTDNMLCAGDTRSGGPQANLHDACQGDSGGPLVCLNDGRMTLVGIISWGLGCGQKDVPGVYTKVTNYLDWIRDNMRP

Structure (SMILES)	MDA231 4xUb-Luc Maximal induction [1]	inhibition at 3 µM ([2]; Homo sapiens, HCT-116, read-out: inhibition of bulk protein turnover)	t½ for dissociation from the β5 site [3]	IC50 [4]	IC50 [5]	IC50 [6]	IC50 [7]	IC50 [8]	Ki [9]	accumulation of the 4xUb-Luc reporter, up to ([1]; 8 h, highest effect observed)	CC50 [10]	CC50 [11]	Enzyme inhibition at 100 μM compound, Cathepsin L [12]	Enzyme inhibition at 100 μM compound, Coagulation Factor β-XIIa [13]	Enzyme inhibition at 100 μM compound, Thrombin [14]	Enzyme inhibition at 100 μM compound, Tissue plasminogen activator [15]	Enzyme inhibition at 100 μM compound, Trypsin [16]	inhibition of bulk protein turnover ([2]; HCT116 cells, 3 μM compound)
CC(C)C[C@H](NC(=O)[C@H](Cc1ccccc1)NC(=O)c1cnccn1)B(O)O [Bortezomib]	340±12 fold	~50%	~ 110 min	–	–	–	–	–	–	–	–	–	–	–	–	–	–	–
Cc1ccc(CNC(=O)[C@H](CCc2ccccc2)NC(=O)[C@H](CCc2ccccc2)NC(=O)[C@H](CCc2ccccc2)NC(=O)c2cnc(C)cn2)cc1 [Compound 1, 5-methyl-N-((S)-1-((S)-1-((S)-1-(4-methylbenzylamino)-1-oxo-4-phenylbutan-2-ylamino)-1-oxo-4-phenylbutan-2-ylamino)-1-oxo-4-phenylbutan-2-yl)pyrazine-2-carboxamide]	52±16 fold	–	–	28000 nM	> 100000 nM	57000 nM	> 100000 nM	8.9 nM	0.5 ± 0.12 nM	approx. 100 fold	150 ± 23 nM	50 to 380 nM	< 50%	< 50%	< 50%	< 50%	< 50%	–
C[C@@]12OC(=O)[C@]1([C@@H](O)[C@@H]1C=CCCC1)NC(=O)[C@@H]2CCCl [ML858]	–	–	–	–	–	–	–	–	–	–	–	–	–	–	–	–	–	comparable
